Reference: US7910621B2, “Small molecule antagonists of XIAP family proteins” (The Regents of the University of Michigan, priority 2004, dated 2011)
Ends that are not written are not given here. Peptide text beside a SMILES is read from it. * marks the point of attachment. 6FAM = O=C1OC2(c3ccc(O)cc3Oc3cc(O)ccc32)c2cc(C(=O)*)ccc21; Cbz = O=C(OCc1ccccc1)*; CH2F = FC*

Columns and labels:
[1] = target: T1, BIR3 domain (residues 241-356) of human XIAP (Homo sapiens, UniProt P98170); assay: XIAP binding assay, FP-based (Smac-Flu tracer); conditions: Table 5
T1 construct: the BIR3 domain (residues 241-356) of human XIAP fused to His-tag; His-tag
Description: An established sensitive and quantitative in vitro fluorescence polarization-based (FP) binding assay for testing of the binding affinity of each new small molecule inhibitor of XIAP is used. […] The competing inhibitor is then added in microtiter wells. If the inhibitor does compete with Smac-Flu to bind to XIAP, it displaces the Smac-Flu peptide from the complex and cause a reduction in the polarization value. […] The change in the polarization value is used to determine the relative affinity of the inhibitor for XIAP. The XIAP used in this assay is the BIR3 domain (residues 241-356) of human XIAP fused to His-tag.
The FP assays were performed as follows: each 96-well contains 50 nM Smac-Flu peptide, 985 nM XIAP protein and 5 ul tested compounds in a final volume of 20 ul. Tested compounds were serially diluted in triplicate in concentration from 0 to 100 uM. For each assay negative controls containing XIAP and Smac-Flu (equivalent to 0% inhibition) and positive controls containing only free Smac-Flu peptide (equivalent to 100% inhibition) were included on each assay plate. The polarization values were measured after 3 hour incubation when the binding reached equilibrium. IC50 values were determined from the plot using nonlinear least-squares analysis. Curve fitting was performed using […] PRISM software. The Kis of competing compounds were derived from the measured IC50 and the Kd of Smac-Flu in the competition assays, using the Cheng-Prusoff equation. The fluorescence intensity of each tested inhibitor is closely monitored to exclude any false positives. Furthermore, compounds with high fluorescence intensity are tested using the NMR methods described below.

[2] = test system: Jurkat-Vec cells; assay: Cell growth assay, Jurkat-Vec; assay type: cell-based; conditions: 2.5 μM, 72 hours
Description: (§1) FIG. 9 presents inhibition of cell growth by embelin in Jurkat-Vec and Jurkat-XIAP cells. The cell growth results are expressed as the percent of control and calculated from the percent of absorbance of treated wells versus that of vehicle control.
(§2) Human prostate cancer cell lines (PC-3, LNCap, CL-1, DU-145), and normal human fibroblast cell line WI-38 were obtained from the American Type Culture Collection (ATCC), were grown and maintained in Dulbecco's modified Eagle's medium (DMEM) containing 10% FBS (Invitrogen Corporation). Normal human prostate epithelial cells (PrEC) were obtained from Clonetics (Cambrex Inc., MD) and maintained in the special medium provided by the company. Jurkat T-cells stably transfected with either empty vector (Jurkat-Vec), or XIAP (Jurkat-XIAP) and were cultured in RPMI 1640 containing 10% fetal calf serum and 1 ug/ml puromycin. Cell cultures were maintained in a humidified incubator at 37° C. and 5% CO2.
Cell growth was determined by the MTT-based assay using Cell Proliferation Reagent WST-1 (Roche) according to the manufacturer's instruction. […] Absorbance was measured with a plate reader at […] with correction at […]. The results are expressed as the percent of absorbance of treated wells versus that of vehicle control.

[3] = test system: Jurkat-XIAP cells; assay: Cell growth assay, Jurkat-XIAP; assay type: cell-based
Description: as §1, §2
Cell growth was determined by the MTT-based assay using Cell Proliferation Reagent WST-1 (Roche) according to the manufacturer's instruction. The WST-1 assay is a colorimetric assay that measures the reduction of WST-1 by mitochondrial succinate dehydrogenase, which belongs to the respiratory chain of the mitochondria and is active only in viable cells. The WST-1 enters the cells and passes into the mitochondria, where it is reduced to a soluble, colored formazan product. The amount of formazan dye formed directly correlates to the number of metabolically active cells in the culture. Cells (5000 cells/well) were grown in medium with 10% FBS, and various concentrations of drugs were added to the cells in triplicate. […] Absorbance was measured with a plate reader at […] with correction at […]. The results are expressed as the percent of absorbance of treated wells versus that of vehicle control.

[4] = test system: caspase-9 in PC-3 cells; assay: Activation of caspase-9 assay, PC-3; assay type: cell-based, human; conditions: for blocking of active caspase-9 staining in Annexin V-FITC positive cells by pre-incubation: embelin-treated PC-3 cells pre-incubated with excessive inhibitor (20 μM LEHD-FMK, 5 min) before staining
Description: FIGS. 7A and 7B show the activation of caspase-9 by embelin in PC-3 prostate cancer cells and its selectivity in normal prostate epithelial cells. 1×10^6 PC-3 or PrEC cells per well in 6-well culture plates were treated with embelin for 48 hours. […] The cells were collected and stained of active caspase-9 by CaspGLOW Red Active Caspase-9 Staining Kit, and analyzed by flow cytometry in PI channel.
1×10^6 PC-3 cells per well in 6-well culture plates, were treated with various concentrations of embelin, or the same amount of solvent DMSO as vehicle control, for up to 48 hr. […] The cells were collected for staining of active caspase-9 by CaspGLOW Red Active Caspase-9 Staining Kit (BioVision, Inc., Mountain View, Calif.) according to the manufacturer's instructions, with modification. Briefly, to each tube containing 1×10^6 treated or control cells in 0.3 ml complete culture medium was added 1 μl of Red-LEHD-FMK and incubated for 0.5 hr at 37° C. incubator with 5% CO2. For double staining with Annexin V-FITC, the cells were spun down and resuspended in 100 μl Binding Buffer containing 1× Annexin V-FITC from the Annexin-V-FLUOS Kit (Roche) and incubated at room temperature for 10 min. The cells were then washed two times with Wash Buffer from the Active Caspase-9 Staining Kit. The cells were resuspended in 0.3 ml Binding Buffer and analyzed by flow cytometry, using PI channel for active caspase-9 and FITC channel for apoptosis.
The active caspase-9 and Annexin V double stained cells were also observed under Zeiss Laser Scanning Confocal Microscope LSM 510 Meta, using the fluorescent filter sets for rhodamine (Red) and FITC (green) channels. Early apoptotic cells show green fluorescence on the cell membrane while caspase-9 positive cells show bright red staining in the cytoplasm. Photos were taken at original magnification of 630×.

[5] = target: XIAP BIR3 protein of human XIAP (residues 241-356) (Homo sapiens, UniProt P98170); assay: biochemical
[6] = target: T2, human XIAP BIR3 protein (residues 241-356) (Homo sapiens, UniProt P98170); assay: FP direct binding of fluorescent labeled Smac peptides to XIAP BIR3 (Kd titration)
T2 construct: The human XIAP BIR3 protein (residues 241-356) with a His tag; His tag
T2 sequence (P98170 241-356): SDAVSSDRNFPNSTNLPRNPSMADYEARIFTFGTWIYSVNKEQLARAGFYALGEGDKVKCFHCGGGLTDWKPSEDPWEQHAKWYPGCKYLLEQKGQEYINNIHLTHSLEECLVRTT

T1 sequence (P98170 241-356): as above
Sequence of XIAP BIR3 protein of human XIAP (residues 241-356) (P98170 241-356): as above

| Compound | IC50 [1] | also measured |
| --- | --- | --- |
| Cc1ccccc1NC(=O)c1cccc(CCC2=C(O)C(=O)C=C(O)C2=O)c1 [CJ-323] | 11.6 ± 0.96 µM | – |
| COc1cc([C@@H]2c3cc4c(cc3[C@@H](O[C@@H]3O[C@@H]5CO[C@@H](C)O[C@H]5[C@H](O)[C@H]3O)[C@H]3COC(=O)[C@H]23)OCO4)cc(OC)c1O [etoposide] | – | cells killed in cell growth assay [2]: 94.3%±0.6%; cells killed in cell growth assay ([3]; 2.5 μM, 72 hours): 59%±2%; cells killed in cell growth assay ([3]; 10 μM): 85%±0.1% |
| Cc1ccc(NC(=O)c2cccc(CCC3=C(O)C(=O)C=C(O)C3=O)c2)cc1 [CJ-305] | 1.62 ± 0.28 µM | – |
| O=C1C=C(O)C(=O)C(CCc2ccccc2)=C1O [CJ-331] | 89.1 ± 11.3 µM | – |
| Cbz-Val-Ala-Asp-CH2F [ZVAD peptide, reference compound] | – | blocking of Annexin V-FITC and active caspase-9 double staining ([4]; PC-3 cells, 40 μM embelin, 48 hrs): blocked; inhibition of embelin-induced activation of caspase-9 ([4]; pan-caspase inhibitor added 5 min before embelin): effectively inhibited |
| O=C1C=C(O)C(=O)C(CCc2cccc(C(=O)Nc3ccc(Cl)c(Cl)c3)c2)=C1O [CJ-327] | 12.3 ± 1.09 µM | – |
| Cc1ccc(CCc2cccc(CCC3=C(O)C(=O)C=C(O)C3=O)c2)cc1 [CJ-274] | 2.14 ± 0.73 µM | – |
| Cc1ccc(CNC(=O)c2cccc(CCC3=C(O)C(=O)C=C(O)C3=O)c2)cc1 [CJ-315] | 5.27 ± 1.43 µM | – |
| Cc1cccc(NC(=O)c2cccc(CCC3=C(O)C(=O)C=C(O)C3=O)c2)c1 [CJ-322] | 4.89 ± 0.75 µM | – |
| CC(C)c1ccc(CCc2cccc(CCC3=C(O)C(=O)C=C(O)C3=O)c2)cc1 [CJ-301] | 3.42 ± 0.31 µM | – |
| ARPFAQK [SM7] | – | IC50 [5]: 570 ± 110 nM |
| ZDEVD-FMK [reference compound] | – | blocking of active caspase-9 staining in Annexin V-FITC positive cells by pre-incubation [4]: did not |
| LEHD-FMK [reference compound] | – | blocking of active caspase-9 staining in Annexin V-FITC positive cells by pre-incubation [4]: blocked |
| C[C@H](N)C(=O)N[C@@H](CCCNC(=N)N)C(=O)N1CCC[C@H]1C(=O)N[C@@H](Cc1ccccc1)C(=O)N[C@@H](C)C(=O)N[C@@H](CCC(N)=O)C(=O)N[C@@H](CCCCNC(=O)c1ccc2c(c1)C1(OC2=O)c2ccc(O)cc2Oc2cc(O)ccc21)C(=O)O [SM7F, ARPFAQK-FAM] (H-ARPFAQK(6FAM)-OH; N-terminus and C-terminus assumed) | – | binding affinity compared with S9F [6]: higher binding affinity than S9F; ratio of the Kd values between labeled SM7F and S9F [6]: 7.3 times |
| CC(C)c1ccc(CCc2cccc(CCC3=C(O)C(=O)C=C(O)C3=O)c2)cc1 [CJ-294] | 3.76 ± 0.25 µM | – |

Further lines, with some results ahead:

| IC50 [1] | Compound | also measured |
| --- | --- | --- |
| 475 ± 122 µM | CCC1=C(O)C(=O)C=C(O)C1=O [EW-9] | – |
| 353 ± 79.4 µM | O=C1C=C(O)C(=O)C(CCCCc2ccccc2)=C1 [EW-3] | – |
| 14.3 ± 2.41 µM | O=C1C(O)=C(CCc2cccc(CCc3ccccc3)c2)C(=O)C(O)=C1CCc1ccccc1 [EW-6] | – |
| 27.6 ± 2.76 µM | CCCCc1cccc(CCC2=C(O)C(=O)C=C(O)C2=O)c1 [EW-4] | – |
| 9.18 ± 1.9 µM | O=C1C=C(O)C(=O)C(CCc2cccc(CCc3cccc(Cl)c3)c2)=C1O [EW-7] | – |
| 8.05 ± 1.48 µM | O=C1C=C(O)C(=O)C(CCc2cccc(CCc3ccc(Cl)cc3)c2)=C1O [EW-8] | – |
| 61.4 ± 9.29 µM | CC(C)CCCCCC1=CC(=O)C=C(O)C1=O [EW-2] | – |
